Measured values published in patent publication US20070161634A1, “Compounds as CCR5 antagonists” (priority 2004, published 2007).
Read-outs that look alike come from different tables or passages of the source.

Legend:
MTT cytotoxicity assay = format: cell-based; conditions: human, peripheral blood mononuclear cells (PBMC) and Jurkat cells; MTT
Experimental: (§1) C. MTT Cytotoxicity Assay
(§2) Cells were prepared as single cell suspension, and cell densities were adjusted according to the cell size and cell features. Cells were inoculated with 100 ul culture media into 96 well plates, and incubated in 37° C. incubator (5% CO2, saturated humidity). The seeding densities were as follows: peripheral blood monouclear cells (PBMC) 10^5 cells /well, Jurket 4×10^4 cells/well. 24 h after cell inoculation, the compounds to be tested were added and incubated with cells. 48 h after inoculation, 10 μl MTT (Sigma, USA, 5 mg/ml, diluted with PBS and stored at −20° C.) was added to each well, and incubated for another 4 h in 37° C. incubator. Then add 50 μl formazane solvent (10%SDS-5%isopropanol−0.01M HCl) and incubate overnight. Determine OD570/OD630 nm at spectrophotometer, and calculate CC50 according to the inhibition curve.

[1] = test system: peripheral blood monouclear cells (PBMC), Jurket; experiment: MTT cytotoxicity assay; format: cell-based; conditions: at 10,000 nM
Experimental: as §1, §2

CXCR4 = CXCR4 (Homo sapiens, UniProt P61073); experiment: effects on the activation of CXCR4 receptor; conditions: at the concentration of 10,000 nM
CCR5 receptor = CCR5 receptor (Homo sapiens, UniProt P51681); experiment: [35S]GTPγS binding assay; format: biochemical
From the text: [^35S]GTPγS binding assay
CCR5 receptor binds to agonists and changes its conformation which enables it to interact with and activate G protein, a heterotrimer which consists of subunits α and βγ. The capability of G protein α subunit binding to GTP depends on the effect between CCR5 and the agonists, therefore, the amount of α subunit bound GTP should reflect the agonists activity on the CCR5 receptor. In the GTPγS binding assay, [^35S]GTPγS is resistant to the GTPase activity of α subunit, and thus cannot be hydrolyzed when bound to G protein, making it accurate to reflect the receptor activation. Radiolabled [^35S]GTPγS can also serve as marker for detection in place of GTP. When CCR5 is not activated, α subunit is bound to GDP, but when CCR5 is activated, α subunit binds to [^35S]GTPγS, therefore, measurement of the number of the α subunit-bound ^35S-GTPγS can reflect the CCR5 activation level.
CCR5 activation of G-protein was measured according to assays below:
Permanent cell line expressing CHO of CCR5 (available at Euroscreen S.A., Belgium) was lysed by lysis buffer (5 mM Tris HCl, pH 7.5, 5 mM EDTA and 5 mM EGTA), and centrifuged at 15,000×g for 10 min. Cell membrane was resuspended with reaction buffer (5 mM Tris HCl, pH 7.5, 5 mM MgCl2, 1 mM EGTA, 100 mM NaCl), and protein concentrations were determined using Bioford assay (Bio-rad). [^35S]GTPγS binding assay was performed in the 100 μl reaction buffer system, which contains 10 ug membrane protein, 40 uM GDP and 0.5 nM [^35S]GTPγS (1200 Ci/mmol). After adding the study compounds, the system was vortexed and placed on ice for 5 min, and then CCR5 agonist was added (10 nM RANTES or 30 nM MIP1β). After vortexing, the reaction tubes were incubated at 30° C. for 1 h. After the reaction was complete, the reaction tubes were placed on ice and diluted with PBS to terminate the reaction. After suction through the GF/C filter membrane under vacuum, the membrane bound radioactivity was measured with a scintillation counter. Basal binding was measured without presence of agonist, and non-specific binding was measured in the presence of 10 mM nonisotopical GTPγS. The binding ratio of [^35S]GTPγS was calculated according to 100×[c.p.m.sample−c.p.m. non-specific]/[c.p.m.basal−c.p.m. non-specific]. IC50 was the compound concentration at which half of the [^35S]GTPγS binding induced by 10 nM RANTES or 30 nM MIP1β was inhibited, and the value was obtained from the concentration-inhibition curve (6-7 points for concentrations of each compound).

CCR1 = target: T1, CCR1 (Homo sapiens, UniProt P32246); experiment: effects on the activation of CCR1 receptor; conditions: at the concentration of 10,000 nM
T1 sequence (P32246 1-355): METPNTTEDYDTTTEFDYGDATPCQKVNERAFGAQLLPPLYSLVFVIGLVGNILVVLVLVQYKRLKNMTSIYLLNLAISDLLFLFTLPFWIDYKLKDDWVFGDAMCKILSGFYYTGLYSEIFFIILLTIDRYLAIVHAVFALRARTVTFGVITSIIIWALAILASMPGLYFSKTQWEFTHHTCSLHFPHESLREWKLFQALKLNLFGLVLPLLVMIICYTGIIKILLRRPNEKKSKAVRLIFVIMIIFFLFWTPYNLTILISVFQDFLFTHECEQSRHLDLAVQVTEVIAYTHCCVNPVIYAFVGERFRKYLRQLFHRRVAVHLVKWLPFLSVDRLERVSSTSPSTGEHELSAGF

[2] = Table I, [35S]GTPγS binding, read-out: IC50
[3] = [35S]GTPγS binding initiated by 10 nM RANTES, read-out: IC50(nM) ± S.E.
[4] = Table I, class symbols, inhibition at 10,000 nM, read-out: IC50
[5] = [35S]GTPγS binding initiated by 10 nM RANTES, class symbols, inhibition at 10,000 nM, read-out: IC50(nM) ± S.E.

Sequence of CCR5 receptor (P51681 whole entry): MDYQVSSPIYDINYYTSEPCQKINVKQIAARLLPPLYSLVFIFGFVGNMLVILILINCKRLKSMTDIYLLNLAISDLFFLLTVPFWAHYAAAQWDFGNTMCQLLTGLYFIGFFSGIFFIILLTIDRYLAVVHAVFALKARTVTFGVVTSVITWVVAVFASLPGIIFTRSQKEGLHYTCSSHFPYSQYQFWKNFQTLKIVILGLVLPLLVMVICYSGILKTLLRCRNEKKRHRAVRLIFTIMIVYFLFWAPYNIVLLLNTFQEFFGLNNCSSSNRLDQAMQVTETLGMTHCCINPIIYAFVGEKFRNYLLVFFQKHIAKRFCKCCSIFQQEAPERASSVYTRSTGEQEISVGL
Sequence of CXCR4 (P61073 whole entry, species assumed): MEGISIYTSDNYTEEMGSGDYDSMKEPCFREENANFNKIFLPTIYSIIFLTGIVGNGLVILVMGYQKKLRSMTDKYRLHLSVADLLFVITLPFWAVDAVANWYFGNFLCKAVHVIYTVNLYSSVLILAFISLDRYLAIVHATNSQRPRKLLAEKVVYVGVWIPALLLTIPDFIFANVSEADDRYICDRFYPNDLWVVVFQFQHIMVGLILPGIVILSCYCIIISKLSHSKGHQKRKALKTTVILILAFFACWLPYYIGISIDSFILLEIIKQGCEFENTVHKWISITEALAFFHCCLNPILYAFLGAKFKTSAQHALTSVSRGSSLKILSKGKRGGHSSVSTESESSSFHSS

SMILES | IC50 (CCR5 receptor; [2]) [nM] | IC50 (CCR5 receptor; [3]) [nM] | other results
CCN(C(=O)OCc1ccccc1)C1CCN(CC2CN(Cc3ccccc3)CC2(O)c2ccccc2)CC1 (centres unmarked) [II-a-a, Benzyl 1-[(1-benzyl-4-hydroxy-4-phenylpyrrolidin-3-yl)methyl]piperidin-4-yl (ethyl)carbamate] | 401 ± 87.5 | 401 ± 87.5 | CC50 at 24 h (MTT cytotoxicity assay): ~30000 nM; cytotoxicity on cells [1]: no significant cytotoxicity; activation or antagonism of CXCR4 receptor (CXCR4): do not activate or antagonize; activation or antagonism of CCR1 receptor (CCR1): do not activate or antagonize
C=CCN(C(=O)COc1ccccc1)C1CCN(CC2CN(C(=O)C3CCCC3)CC2(O)c2ccccc2)CC1 (centres unmarked) [III-a-l, N-allyl-N-(1-((1-(cyclopen-tanecarbonyl)-4-hydroxy-4-phenylpyrrolidin-3-yl)methyl)piperi-din-4-yl)-3-phenoxy acetamide] | 13.6 | 13.6 | –
C=CCN(C(=O)OCc1ccc([N+](=O)[O-])cc1)C1CCN(CC2CN(C(=O)c3ccccc3I)CC2(O)c2ccccc2)CC1 (centres unmarked) [III-a-c, 4-nitrobenzyl allyl(1-((4-hydroxy-1-(2-iodobenzoyl)-4-phenylpyrrolidin-3-yl)methyl)piperidin-4-yl)carbamate] | 24.9 ± 8.8 | 24.9 ± 8.8 | CC50 at 24 h (MTT cytotoxicity assay): ~30000 nM; cytotoxicity on cells [1]: no significant cytotoxicity; activation or antagonism of CXCR4 receptor (CXCR4): do not activate or antagonize; activation or antagonism of CCR1 receptor (CCR1): do not activate or antagonize
O=C(c1ccccc1)N1CC(CN2CCC(c3ccccc3)CC2)C(O)(c2ccccc2)C1 (centres unmarked) [I-b-b, (3-hydroxy-3-phenyl-4-[(4-phenylpiperidin-1-yl)methyl]pyrrolidin-1-yl)(phenyl)methanone] | 2860 ± 860 | 2860 ± 60 | –
O=C(c1ccccc1I)N1CC(CN2CCC(c3ccccc3)CC2)C(O)(c2ccccc2)C1 (centres unmarked) [I-b-c, (3-hydroxy-3-phenyl-4-[(4-phenylpiperidin-1-yl)methyl]pyrrolidin-1-yl)(2-iodophenyl) methanone] | 1160 ± 224 | 1160 ± 224 | –
C=CCN(C(=O)Nc1ccccc1)C1CCN(CC2CN(C(=O)C3CCCC3)CC2(O)c2ccccc2)CC1 (centres unmarked) [III-a-k, 1-allyl-1-(1-((1-(cyclopentane-carbonyl)-4-hydroxy-4-phenylpyrrolidin-3-yl)methyl)piperidin-4-yl)-3-phenylurea] | 6.46 | 6.46 | –
O=S(=O)(c1ccccc1)N1CC(CN2CCC(c3ccccc3)CC2)C(O)(c2ccccc2)C1 (centres unmarked) [I-b-d, 3-phenyl-4-[(4-phenylpiperidin-1-yl)methyl]-1-(phenylsulfonyl)pyrrolidin-3-ol] | – | – | IC50 (CCR5 receptor; [4]): > 10000 nM; IC50 (CCR5 receptor; [5]): > 10000 nM
C=CCN(C(=O)OCc1ccccc1)C1CCN(CC2CN(C(=O)C3CCCC3)CC2(O)c2ccccc2)CC1 (centres unmarked) [III-a-h, benzyl allyl(1-((1-(cyclo-pentanecarbonyl)-4-hydroxy-4-phenylpyrrolidin-3-yl)methyl)piperi-din-4-yl) carbamate] | 8.75 | 8.75 | –
C[C@H]1[C@@H](CN2CCC(c3ccccc3)CC2)C(O)(c2ccccc2)CN1Cc1ccccc1 (some centres unmarked) [IV-a-a, 1-benzyl-5-methyl-3-phenyl-4-[(4-phenylpiperi-din-1-yl)methyl]py-rrolidin-3-ol] | – | – | IC50 (CCR5 receptor; [4]): > 10000 nM; IC50 (CCR5 receptor; [5]): > 10000 nM
CCN(C(=O)OCc1ccccc1)C1CCN(CC2CN(Cc3ccccc3)CC2(C)O)CC1 (centres unmarked) [II-a-c] | – | – | IC50 (CCR5 receptor; [4]): > 10000 nM; IC50 (CCR5 receptor; [5]): > 10000 nM
C=CCN(C(=O)OCc1ccc([N+](=O)[O-])cc1)C1CCN(CC2CN(Cc3ccccc3)CC2(O)c2ccccc2)CC1 (centres unmarked) [III-a-a, 4-nitrobenzyl allyl(1-((1-benzyl-4-hydroxy-4-phenylpyrrolidin-3-yl)methyl)piperidin-4-yl) carbamate] | ~10000 | ~10000 | activation or antagonism of CXCR4 receptor (CXCR4): do not activate or antagonize; activation or antagonism of CCR1 receptor (CCR1): do not activate or antagonize
OC1(c2ccc3c(c2)OCO3)CN(Cc2ccccc2)CC1CN1CCC(c2ccccc2)CC1 (centres unmarked) [I-a-a, 1-benzyl-3-(benzo[1,3]dioxol-5-yl)-4-[(4-phenylpiperidin-1-yl)methyl]pyrrolidin-3-ol] | ~10000 | ~10000 | –
CCN(C(=O)OCc1ccccc1)C1CCN(CC2CN(Cc3ccccc3)CC2(O)c2ccc(F)cc2)CC1 (centres unmarked) [II-a-b, Benzyl 1-[(1-benzyl-4-(4-fluorophenyl)-4-hydroxypyrrolidin-3-yl)methyl]piperidin-4-yl (ethyl)carbamate] | 565 ± 64.5 | 565 ± 64.5 | –
O=C(C1CCCC1)N1CC(CN2CCC(c3ccccc3)CC2)C(O)(c2ccccc2)C1 (centres unmarked) [I-b-e, Cyclopentyl-(3-hydroxy-3-phenyl-4-[(4-phenylpiperidin-1-yl)methyl]pyrrolidin-1-yl)metha none] | 1890 ± 615 | 1890 ± 615 | –
C=CCN(C(=O)OCc1ccc(OC)cc1)C1CCN(CC2CN(C(=O)C3CCCC3)CC2(O)c2ccccc2)CC1 (centres unmarked) [III-a-i, 4-methoxybenzyl allyl(1-((1-(cyclo-pentanecarbonyl)-4-hydroxy-4-phenylpyrrolidin-3-yl)methyl)piperi-din-4-yl) carbamate] | 4.33 | 4.33 | –
OC1(CCCc2ccccc2)CCN(CC2CN(Cc3ccccc3)CC2(O)c2ccc(F)cc2)CC1 (centres unmarked) [I-b-k, 1-{[1-benzyl-4-(4-fluorophenyl)-4-hydroxypyrrolidin-3-yl]methyl}-4-(3-phenylpropyl)piper idin-4-ol] | 2510 | 2510 | –
OC1(CCCc2ccccc2)CCN(CC2CN(Cc3ccccc3)CC2(O)c2ccccc2)CC1 (centres unmarked) [I-b-h, 1-[(1-benzyl-4-hydroxy-4-phenylpyrrolidin-3-yl)methyl]-4-(3-phenylpropyl)piperidin-4-ol] | 368 ± 52 | 368 ± 52 | –
OC1(c2ccc(F)cc2)CN(Cc2ccccc2)CC1CN1CCC(c2ccccc2)CC1 (centres unmarked) [I-b-j, 1-benzyl-3-(4-fluorophenyl)-4-((4-phenylpiperidin-1-yl)methyl)pyrrolidin-3-ol] | – | – | IC50 (CCR5 receptor; [4]): > 10000 nM; IC50 (CCR5 receptor; [5]): > 10000 nM
OC1(c2ccccc2)CN(Cc2ccccc2)CC1CN1CCC(CCCc2ccccc2)CC1 (centres unmarked) [I-b-g, 1-benzyl-3-phenyl-4-{[4-(3-phenylpropyl)piperidin-1-yl]methyl}pyrrolidin-3-ol] | 408 ± 10.5 | 408 ± 10.5 | –
C=CCN(C(=O)OCc1ccc(Br)cc1)C1CCN(CC2CN(C(=O)C3CCCC3)CC2(O)c2ccccc2)CC1 (centres unmarked) [III-a-j, 4-bromobenzyl allyl(1-((1-cyclo-pentanecar-bonyl)-4-hydroxy-4-phenylpyrrolidin-3-yl)methyl) piperidin-4-yl) carbamate] | 8.87 | 8.87 | –
